Values after ≈ are worked out from the molar mass of the structure shown. Where two headings read alike, the source gives them in different places.
Key:
[1] = Relative stability in kidney homogenate of man; type: in vitro ADME; conditions: human (man) kidney homogenate; 37° C., 60 minutes; drug solution 100-300 μg/ml; read-out: Relative stability: drug remaining as a percentage of initial concentration
Protocol: (§1) *A drug solution (100-300 μg/ml) (0.1 ml) and a kidney homogenate (0.1
(§2) ml) were allowed to react at 37° C. for 60 minutes and the mixture
(§3) was immediately heattreated at 100° C. for 15 seconds. After
(§4) centrifugation, the concentration of the drug remaining in the supernatan
(§5) solution was bioassayed as a percentage of initial concentration by
(§6) Comamonas terrigena B996.
(§7) An overnight culture of Comamonas terrigena B-996 on a nutrient agar slant was suspended in nutrient broth to give a cell suspension of absorbance 0.04 at 610 nm. One percent of the cell suspension in volume was inoculated into molten agar medium containing 0.8% in weight of Kyokuto powdered bouillon (Kyokuto Pharmaceutical Co.) and 1.0% in weight of Bato-agar (Difco Lab.), and 7 ml each of the inoculated agar medium was poured into a 9 cm petri dish to make a Comamonas assay plate.

[2] = Relative stability in kidney homogenate of dog; type: in vitro ADME; conditions: 37° C., 60 minutes, drug solution 100-300 μg/ml, read-out: Relative stability: drug remaining as a percentage of initial concentration
Protocol: as §1, §2, §3, §4, §5, §6, §7

[3] = Relative stability in kidney homogenate of mouse; type: in vitro ADME; conditions: 37° C., 60 minutes, drug solution 100-300 μg/ml, read-out: Relative stability: drug remaining as a percentage of initial concentration
Protocol: as §1, §2, §3, §4, §5, §6, §7

Proteus vulgaris GN76 = experiment: Minimum inhibitory concentration, agar dilution technique; type: cell-based; conditions: beta-lactam-resistant strain, heart infusion agar, inoculum 10^6 cells/ml, read-out: Minimum Inhibitory Concentration (M.I.C.)
Description: (§8) Minimum Inhibitory Concentration (M.I.C. in μg/ml)**
(§9) *Beta-lactam-resistant strain.
(§10) **Medium heartinfusion agar (Difco Lab.); inoculum size 10^6 cells/ml
(§11) determined by the agar dilution technique

Serratia marcescens T55 = experiment: as above; type: cell-based; conditions: beta-lactam-resistant strain, heart infusion agar, inoculum 10^6 cells/ml, read-out: Minimum Inhibitory Concentration (M.I.C.)
Description: as §8, §9, §10, §11

[4] = system: Citrobacter freundii GN346; experiment: as above; type: cell-based; conditions: beta-lactam-resistant strain, heart infusion agar, inoculum 10^6 cells/ml, read-out: Minimum Inhibitory Concentration (M.I.C.)
Description: as §8, §9, §10, §11

Proteus sp. P-22 = experiment: as above; type: cell-based; conditions: beta-lactam-resistant strain; heart infusion agar; inoculum 10^6 cells/ml; read-out: Minimum Inhibitory Concentration (M.I.C.)
Description: as §8, §9, §10, §11

Serratia marcescens S-18 = experiment: as above; type: cell-based
Description: as §8, §9, §10, §11

Escherichia coli RGN823 = experiment: as above; type: cell-based; conditions: RGN823, read-out: Minimum Inhibitory Concentration (M.I.C.)
Description: as §8, §9, §10, §11

[5] = system: Pseudomonas aeruginosa NCTC 10490; experiment: as above; type: cell-based; conditions: NCTC10490, beta-lactam-resistant strain, heart infusion agar, inoculum 10^6 cells/ml, read-out: Minimum Inhibitory Concentration (M.I.C.)
Description: as §8, §9, §10, §11

Enterobacter cloacae 45 = experiment: as above; type: cell-based; conditions: beta-lactam-resistant strain, heart infusion agar, inoculum 10^6 cells/ml, read-out: Minimum Inhibitory Concentration (M.I.C.)
Description: as §8, §9, §10, §11

[6] = system: Klebsiella pneumoniae K13; experiment: as above; type: cell-based
Description: as §8, §9, §10, §11

[7] = system: Pseudomonas aeruginosa IFO 3445; experiment: as above; type: cell-based; conditions: IFO3445, beta-lactam-resistant strain, heart infusion agar, inoculum 10^6 cells/ml, read-out: Minimum Inhibitory Concentration (M.I.C.)
Description: as §8, §9, §10, §11

[8] = system: Enterobacter aerogenes E-19; experiment: as above; type: cell-based; conditions: Klebsiella aerogenes, E19; beta-lactam-resistant strain; heart infusion agar; inoculum 10^6 cells/ml; read-out: Minimum Inhibitory Concentration (M.I.C.)
Description: as §8, §9, §10, §11

[9] = Relative stability in phosphate buffer, pH 7.0 (control); type: physicochemical; conditions: 37° C., 60 minutes, drug solution 100-300 μg/ml, read-out: Relative stability: drug remaining as a percentage of initial concentration
Protocol: as §1, §2, §3, §4, §5, §6, §7

Sarcina lutea = experiment: Minimum inhibitory concentration, agar dilution technique; type: cell-based; conditions: Micrococcus luteus; heart infusion agar; inoculum 10^6 cells/ml; read-out: Minimum Inhibitory Concentration (M.I.C.)
Description: as §8, §10, §11

Enterobacter sp. E-8 = experiment: as above; type: cell-based; conditions: SP.E8, heart infusion agar, inoculum 10^6 cells/ml, read-out: Minimum Inhibitory Concentration (M.I.C.)
Description: as §8, §10, §11

[10] = system: Staphylococcus aureus Smith; experiment: as above; type: cell-based; conditions: heart infusion agar, inoculum 10^6 cells/ml, read-out: Minimum Inhibitory Concentration (M.I.C.)
Description: as §8, §10, §11

Escherichia coli K-12 = experiment: as above; type: cell-based; conditions: K12, heart infusion agar, inoculum 10^6 cells/ml, read-out: Minimum Inhibitory Concentration (M.I.C.)
Description: as §8, §10, §11

[11] = system: Bacillus subtilis ATCC 6633; experiment: as above; type: cell-based; conditions: ATCC6633, heart infusion agar, inoculum 10^6 cells/ml, read-out: Minimum Inhibitory Concentration (M.I.C.)
Description: as §8, §10, §11

[12] = system: Staphylococcus aureus 209P; experiment: as above; type: cell-based; conditions: read-out: Minimum Inhibitory Concentration (M.I.C.)
Description: as §8, §10, §11

Proteus rettgeri P-6 = experiment: as above; type: cell-based; conditions: Providencia rettgeri
Description: as §8, §10, §11

Proteus mirabilis P-6 = experiment: as above; type: cell-based; conditions: P6, heart infusion agar, inoculum 10^6 cells/ml, read-out: Minimum Inhibitory Concentration (M.I.C.)
Description: as §8, §10, §11

[13] = system: Staphylococcus epidermidis; experiment: as above; type: cell-based; conditions: heart infusion agar, inoculum 10^6 cells/ml, read-out: Minimum Inhibitory Concentration (M.I.C.)
Description: as §8, §10, §11

Alcaligenes faecalis A1 = experiment: as above; type: cell-based; conditions: heart infusion agar, inoculum 10^6 cells/ml, read-out: Minimum Inhibitory Concentration (M.I.C.)
Description: as §8, §10, §11

[14] = system: Comamonas terrigena B-996; experiment: as above; type: cell-based; conditions: B996, heart infusion agar, inoculum 10^6 cells/ml, read-out: Minimum Inhibitory Concentration (M.I.C.)
Description: as §8, §10, §11

[15] = system: Staphylococcus aureus Russell; experiment: as above; type: cell-based; conditions: heart infusion agar, inoculum 10^6 cells/ml, read-out: Minimum Inhibitory Concentration (M.I.C.)
Description: as §8, §10, §11

Providencia sp. P-8 = experiment: as above; type: cell-based
Description: as §8, §10, §11

Compound	remaining at 1 h [1]	remaining at 1 h [2]	remaining at 1 h [3]	MIC (Proteus vulgaris GN76)	MIC (Serratia marcescens T55)	MIC [4]	MIC (Proteus sp. P-22)	MIC (Escherichia coli RGN823)	MIC [5]	MIC (Enterobacter cloacae 45)	MIC [7]	MIC [8]	remaining at 1 h [9]	MIC (Sarcina lutea)	MIC (Enterobacter sp. E-8)	MIC [10]	MIC (Escherichia coli K-12)	MIC [11]	MIC (Proteus mirabilis P-6)	MIC [13]	other results
CC(O)C1C(=O)N2C(C(=O)O)=C(SCCNC(=O)CCNC(=O)C(O)C(C)(C)COP(=O)(O)O)CC12 (stereo not drawn) [Phosphoric ester of antibiotic OA-6129B]	72%	29%	42%	25 µg/mL (≈ 45.2 µM)	25 µg/mL (≈ 45.2 µM)	> 25 µg/mL	25 µg/mL (≈ 45.2 µM)	12.5 µg/mL (≈ 22.6 µM)	> 25 µg/mL	> 25 µg/mL	> 25 µg/mL	25 µg/mL (≈ 45.2 µM)	100%	> 25 µg/mL	12.5 µg/mL (≈ 22.6 µM)	> 25 µg/mL	12.5 µg/mL (≈ 22.6 µM)	25 µg/mL (≈ 45.2 µM)	25 µg/mL (≈ 45.2 µM)	> 25 µg/mL	MIC (Serratia marcescens S-18; S18, read-out: Minimum Inhibitory Concentration (M.I.C.)): 12.5 µg/mL (≈ 22.6 µM); MIC ([6]; K13, read-out: Minimum Inhibitory Concentration (M.I.C.)): 12.5 µg/mL (≈ 22.6 µM); MIC [12]: 12.5 µg/mL (≈ 22.6 µM); MIC (Proteus rettgeri P-6; P6, read-out: Minimum Inhibitory Concentration (M.I.C.)): 12.5 µg/mL (≈ 22.6 µM); MIC (Alcaligenes faecalis A1): 6.25 µg/mL (≈ 11.3 µM); MIC [14]: 0.39 µg/mL (≈ 0.705 µM); MIC [15]: > 25 µg/mL; MIC (Providencia sp. P-8; SP.P8, heart infusion agar, inoculum 10^6 cells/ml, read-out: Minimum Inhibitory Concentration (M.I.C.)): 6.25 µg/mL (≈ 11.3 µM)
CCC1C(=O)N2C(C(=O)O)=C(SCCNC(=O)CCNC(=O)C(O)C(C)(C)CO)CC12 (stereo not drawn) [Antibiotic OA-6129A]	57%	25%	7%	100 µg/mL (≈ 219 µM)	100 µg/mL (≈ 219 µM)	50 µg/mL (≈ 109 µM)	100 µg/mL (≈ 219 µM)	12.5 µg/mL (≈ 27.3 µM)	> 100 µg/mL	50 µg/mL (≈ 109 µM)	> 100 µg/mL	25 µg/mL (≈ 54.6 µM)	100%	6.25 µg/mL (≈ 13.7 µM)	12.5 µg/mL (≈ 27.3 µM)	1.56 µg/mL (≈ 3.41 µM)	12.5 µg/mL (≈ 27.3 µM)	0.39 µg/mL (≈ 0.852 µM)	50 µg/mL (≈ 109 µM)	1.56 µg/mL (≈ 3.41 µM)	MIC (Serratia marcescens S-18; S18, beta-lactam-resistant strain, heart infusion agar, inoculum 10^6 cells/ml, read-out: Minimum Inhibitory Concentration (M.I.C.)): 100 µg/mL (≈ 219 µM); MIC ([6]; K13, beta-lactam-resistant strain, heart infusion agar, inoculum 10^6 cells/ml, read-out: Minimum Inhibitory Concentration (M.I.C.)): 50 µg/mL (≈ 109 µM); MIC ([12]; heart infusion agar, inoculum 10^6 cells/ml): 0.78 µg/mL (≈ 1.7 µM); MIC (Proteus rettgeri P-6; P6, heart infusion agar, inoculum 10^6 cells/ml, read-out: Minimum Inhibitory Concentration (M.I.C.)): 25 µg/mL (≈ 54.6 µM); MIC (Alcaligenes faecalis A1): 1.56 µg/mL (≈ 3.41 µM); MIC [14]: 0.05 µg/mL (≈ 0.109 µM); MIC [15]: 0.78 µg/mL (≈ 1.7 µM); MIC (Providencia sp. P-8; SP.P8, read-out: Minimum Inhibitory Concentration (M.I.C.)): 12.5 µg/mL (≈ 27.3 µM)
CC(O)C1C(=O)N2C(C(=O)O)=C(SCCNC(=O)CCNC(=O)C(O)C(C)(C)CO)CC12 (stereo not drawn) [Antibiotic OA-6129B]	47%	20%	20%	–	–	–	–	–	–	–	–	–	98%	–	–	–	–	–	–	–	–
